For 31 compounds, melting point results are on record in patent US7884127B2, “Inhibitors of cyclin dependent kinases and their use” (Pirimal Life Sciences Ltd., priority 2002, dated 2011).

SMILES strings stand for the structures. A value given as a limit tells only on which side of the number the result lay.

`CN1CC[C@@H](c2c(O)cc(O)c3c(=O)cc(-c4cc(O)ccc4Cl)oc23)[C@@H]1CO.Cl`: the melting point lay within 189 to 190 °C.

For `COc1cc(OC)c2c(=O)cc(-c3ccccc3Cl)oc2c1[C@@H]1CCN(C)[C@H]1CO` (racemic) [Example 7, (±)-trans-2-(2-Chloro-phenyl)-8-(2-hydroxymethyl-1-methyl-pyrrolidin-3-yl)-5,7-dimethoxy-chromen-4-one], the melting point lay within 95 to 97 °C.

`CN1CC[C@@H](c2c(O)cc(O)c3c(=O)cc(-c4cc(F)ccc4Cl)oc23)[C@@H]1CO` (racemic) [Example 23, (±)-trans-2-(2-Chloro-5-fluoro-phenyl)-5,7-dihydroxy-8-(2-hydroxymethyl-1-methyl-pyrrolidin-3-yl)-chromen-4-one]: the melting point lay within 253 to 254 °C.

`CN1CC[C@@H](c2c(O)cc(O)c3c(=O)cc(-c4cc(F)ccc4Cl)oc23)[C@@H]1CO.CS(=O)(=O)O` (racemic) [Example 25, (±)-trans-2-(2-Chloro-5-fluoro-phenyl)-5,7-dihydroxy-8-(2-hydroxymethyl-1-methyl-pyrrolidin-3-yl)-chromen-4-one methane sulfonate] yielded a melting point of 192 to 193 °C.

`COc1cc(OC)c2c(=O)cc(-c3ccc(C(F)(F)F)cc3)oc2c1[C@@H]1CCN(C)[C@H]1CO` (racemic) [Example 62, (±)-trans-8-(2-Hydroxymethyl-1-methyl-pyrrolidin-3-yl)-5,7-dimethoxy-2-(4-trifluoromethyl-phenyl)-chromen-4-one] had a melting point of 114 to 115 °C.

`CN1CC[C@@H](c2c(O)cc(O)c3c(=O)cc(-c4ccc(C(F)(F)F)cc4)oc23)[C@@H]1CO` (racemic) [Example 63, (±)-trans-5,7-Dihydroxy-8-(2-hydroxymethyl-1-methyl-pyrrolidin-3-yl)-2-(4-trifluoromethyl-phenyl)-chromen-4-one] showed a melting point of 238 °C.

`COc1cc(OC)c2c(=O)cc(-c3ccc(C#N)cc3)oc2c1[C@@H]1CCN(C)[C@H]1CO` (racemic) [Example 81, (±)-trans-4-[8-(2-Hydroxymethyl-1-methyl-pyrrolidin-3-yl)-5,7-dimethoxy-4-oxo-4H-chromen-2-yl]-benzonitrile] had a melting point of 214 to 216 °C.

Regarding `CN1CC[C@@H](c2c(O)cc(O)c3c(=O)cc(-c4ccccc4O)oc23)[C@@H]1CO` (racemic) [Example 96, (±)-trans-5,7-Dihydroxy-8-(2-hydroxymethyl-1-methyl-pyrrolidin-3-yl)-2-(2-hydroxy-phenyl)-chromen-4-one], the melting point was 212 to 213 °C.

`CNc1ccc(Cl)c(-c2cc(=O)c3c(O)cc(O)c([C@@H]4CCN(C)[C@H]4CO)c3o2)c1` (racemic) [Example 102, (±)-trans-2-(2-Chloro-5-methylamino-phenyl)-5,7-dihydroxy-8-(2-hydroxymethyl-1-methyl-pyrrolidin-3-yl)-chromen-4-one] gave a melting point of 208 to 210 °C.

`CN1CC[C@@H](c2c(O)cc(O)c3c(=O)cc(-c4ccc(O)cc4Cl)oc23)[C@@H]1CO` (racemic) [Example 104, (±)-trans-2-(2-Chloro-4-hydroxy-phenyl)-5,7-dihydroxy-8-(2-hydroxymethyl-1-methyl-pyrrolidin-3-yl)-chromen-4-one] had a melting point above 300 °C.

With `CN1CC[C@@H](c2c(O)cc(O)c3c(=O)cc(-c4ccccc4Cl)oc23)[C@@H]1CN` (racemic) [Example 109, (±)-trans-8-(2-Aminomethyl-1-methyl-pyrrolidin-3-yl)-2-(2-chloro-phenyl)-5,7-dihydroxy-chromen-4-one], the melting point lay in the range of 218 to 219 °C.

As to `CN1CC[C@@H](c2c(O)cc(O)c3c(=O)cc(-c4ccccc4Cl)oc23)[C@@H]1CC#N` (racemic) [Example 111, (±)-trans-{3-[2-(2-Chloro-phenyl)-5,7-dihydroxy-4-oxo-4H-chromen-8-yl]-1-methyl-pyrrolidin-2-yl}-acetonitrile], the melting point fell in the range of 107 to 108 °C.

As for `CN1CC[C@@H](c2c(O)cc(O)c3c(=O)cc(-c4ccccc4Cl)oc23)[C@@H]1Cn1ccnc1` (racemic) [Example 113, (±)-trans-2-(2-Chloro-phenyl)-5,7-dihydroxy-8-(2-imidazol-1-ylmethyl-1-methyl-pyrrolidin-3-yl)-chromen-4-one], the melting point was 249 to 250 °C.

Regarding `CN1CC[C@@H](c2c(O)cc(O)c3c(=O)cc(-c4ccccc4Cl)oc23)[C@@H]1CS` (racemic) [Example 115, (±)-trans-2-(2-Chloro-phenyl)-5,7-dihydroxy-8-(2-mercaptomethyl-1-methyl-pyrrolidin-3-yl)-chromen-4-one], the melting point lay within 205 to 206 °C.

Compound `CCCN1CC[C@@H](c2c(O)cc(O)c3c(=O)cc(-c4ccccc4Cl)oc23)[C@@H]1CO` (racemic) [Example 132, (±)-trans-2-(2-Chloro-phenyl)-5,7-dihydroxy-8-(2-hydroxymethyl-1-propyl-pyrrolidin-3-yl)-chromen-4-one] had a melting point of 94 to 96 °C.

`COc1cc(OC)c2c(=O)cc(-c3ccccc3Cl)oc2c1[C@@H]1CCN(C)[C@H]1C(=O)O` (racemic) [Example 143, (±)-trans-3-[2-(2-Chloro-phenyl)-5,7-dimethoxy-4-oxo-4H-chromen-8-yl]-1-methyl-pyrrolidine-2-carboxylic acid] returned a melting point of 165 to 167 °C.

Compound `CN1CC[C@@H](c2c(O)cc(O)c3c(=O)cc(-c4ccccc4Cl)oc23)[C@@H]1C(=O)O` (racemic) [Example 144, (±)-trans-3-[2-(2-Chloro-phenyl)-5,7-dihydroxy-4-oxo-4H-chromen-8-yl]-1-methyl-pyrrolidine-2-carboxylic acid] had a melting point of 295 to 297 °C.

The compound `COc1cc(OC)c2c(=O)cc(-c3ccccc3Cl)oc2c1[C@@H]1CCN(C)[C@H]1CO` [Example 13, (+)-trans-2-(2-Chloro-phenyl)-8-(2-hydroxymethyl-1-methyl-pyrrolidin-3-yl)-5,7-dimethoxy-chromen-4-one] had a melting point of 91 to 93 °C.

In the case of `CN1CC[C@@H](c2c(O)cc(O)c3c(=O)cc(-c4ccccc4I)oc23)[C@@H]1CO` [Example 19, (+)-trans-5,7-Dihydroxy-8-(2-hydroxymethyl-1-methyl-pyrrolidin-3-yl)-2-(2-iodo-phenyl)-chromen-4-one], the melting point is 233 to 235 °C.

In turn, `CN1CC[C@@H](c2c(O)cc(O)c3c(=O)cc(-c4ccccc4F)oc23)[C@@H]1CO` [Example 21, (+)-trans-2-(2-Fluoro-phenyl)-5,7-dihydroxy-8-(2-hydroxymethyl-1-methyl-pyrrolidin-3-yl)-chromen-4-one] displayed a melting point of 206 to 208 °C.

In turn, `Cc1ccc(Cl)c(-c2cc(=O)c3c(O)cc(O)c([C@@H]4CCN(C)[C@H]4CO)c3o2)c1` [Example 38, (+)-trans-2-(2-Chloro-5-methyl-phenyl)-5,7-dihydroxy-8-(2-hydroxymethyl-1-methyl-pyrrolidin-3-yl)-chromen-4-one] returned a melting point of 206 to 208 °C.

In the case of `CN1CC[C@@H](c2c(O)cc(O)c3c(=O)cc(-c4ccc([N+](=O)[O-])cc4Br)oc23)[C@@H]1CO` [Example 42, (+)-trans-2-(2-Bromo-4-nitro-phenyl)-5,7-dihydroxy-8-(2-hydroxymethyl-1-methyl-pyrrolidin-3-yl)-chromen-4-one], the melting point was determined as 186 °C.

Turning to `CN1CC[C@@H](c2c(O)cc(O)c3c(=O)cc(-c4ccccc4)oc23)[C@@H]1CO` [Example 57, (+)-trans-5,7-Dihydroxy-8-(2-hydroxymethyl-1-methyl-pyrrolidin-3-yl)-2-phenyl-chromen-4-one], the melting point is 212 to 215 °C.

Compound `Cc1cc(C#N)ccc1-c1cc(=O)c2c(O)cc(O)c([C@@H]3CCN(C)[C@H]3CO)c2o1` [Example 60, (+)-trans-4-[5,7-Dihydroxy-8-(2-hydroxymethyl-1-methyl-pyrrolidin-3-yl)-4-oxo-4H-chromen-2-yl]-3-methyl-benzonitrile] displayed a melting point of 145 to 147 °C.

`CN1CC[C@@H](c2c(O)cc(O)c3c(=O)cc(-c4ccc(C(F)(F)F)cc4)oc23)[C@@H]1CO` [Example 65, (+)-trans-5,7-Dihydroxy-8-(2-hydroxymethyl-1-methyl-pyrrolidin-3-yl)-2-(4-trifluoromethyl-phenyl)-chromen-4-one] came in with a melting point of 235 to 237 °C.

With `CN1CC[C@@H](c2c(O)cc(O)c3c(=O)cc(-c4cccs4)oc23)[C@@H]1CO` [Example 68, (+)-trans-5,7-Dihydroxy-8-(2-hydroxymethyl-1-methyl-pyrrolidin-3-yl)-2-thiophen-2-yl-chromen-4-one], the melting point was in the range of 218 to 220 °C.

In the case of `CN1CC[C@@H](c2c(O)cc(O)c3c(=O)cc(-c4cccc(F)c4)oc23)[C@@H]1CO` [Example 76, (+)-trans-2-(3-Fluoro-phenyl)-5,7-dihydroxy-8-(2-hydroxymethyl-1-methyl-pyrrolidin-3-yl)-chromen-4-one], the melting point was 218 to 220 °C.

The compound `CN1CC[C@@H](c2c(O)cc(O)c3c(=O)cc(-c4cccnc4Cl)oc23)[C@@H]1CO` [Example 90, (+)-trans-2-(2-Chloro-pyridin-3-yl)-5,7-dihydroxy-8-(2-hydroxymethyl-1-methyl-pyrrolidin-3-yl)-chromen-4-one] came in with a melting point of 125 to 127 °C.

`CN1CC[C@@H](c2c(O)cc(O)c3c(=O)cc(-c4ccc([N+](=O)[O-])cc4)oc23)[C@@H]1CO` [Example 92, (+)-trans-5,7-Dihydroxy-8-(2-hydroxymethyl-1-methyl-pyrrolidin-3-yl)-2-(4-nitro-phenyl)-chromen-4-one]: the melting point was 275 to 277 °C.

With `CN1CC[C@@H](c2c(O)cc(O)c3c(=O)cc(-c4ccc(N)cc4)oc23)[C@@H]1CO` [Example 94, (+)-trans-2-(4-Amino-phenyl)-5,7-dihydroxy-8-(2-hydroxymethyl-1-methyl-pyrrolidin-3-yl)-chromen-4-one], the melting point is 172 to 174 °C.

In turn, `CN1CC[C@@H](c2c(O)cc(O)c3c(=O)cc(-c4ccc(C#N)cc4Cl)oc23)[C@@H]1CO` [Example 98, (+)-trans-3-Chloro-4-[5,7-dihydroxy-8-(2-hydroxymethyl-1-methyl-pyrrolidin-3-yl)-4-oxo-4H-chromen-2-yl]-benzonitrile] yielded a melting point of 237 to 239 °C.

As usually defined, the melting point is the temperature, or range, at which the solid turns liquid.
